In ChEMBL document CHEMBL3867442, “Naphthalene Derivatives from the Roots of Pentas parvifolia and Pentas bussei” (2016):

experiment: Cytotoxicity against human MDA-MB-231 cells after 72 hrs by alamar blue assay; format: functional; conditions: MDA-MB-231, 72 h, read-out: LD50 (the source's name)

Row | SMILES | CC50
1 | COc1c(C)c(O)cc2c1C(=O)c1ccccc1C2=O | 54.4 µM
2 | COc1cc(C(=O)O)c(O)c2ccc3c(c12)[C@@H]1O[C@@H](OC)[C@H](C)[C@@H]2CC[C@](C)(O3)[C@@H]21 | 130 µM
3 | COC(=O)c1cc(OC)c2c(O)c(O)ccc2c1O | 96.5 µM
4 | CCO[C@@H]1O[C@H]2c3c(ccc4c(O)c(C(=O)O)cc(OC)c34)O[C@@]3(C)CC[C@@H]([C@H]1C)[C@@H]23 | 62.3 µM
5 | COc1cc(C(=O)O)c(O)c2ccc3c(c12)C=CC(C)(CCC=C(C)C)O3 (stereo unspecified) [BUSSEIHYDROQUINONE C] | 48.4 µM
6 | COc1c(C=O)c(O)cc2c1C(=O)c1ccccc1C2=O [DAMNACANTHAL] | > 352 µM
